A value given as a limit tells only on which side of the number the result lay.

One may read the IC50 as the concentration that inhibits the measured activity by half. The term Papp denotes a coefficient for how fast a substance crosses the barrier. A low value points to slow passage. As usually defined, the EC50 is the concentration needed to bring the measured effect to its halfway point. Lower therefore signals an effect from little substance.

One series deals with IRAK4 (Homo sapiens (Human), UniProt Q9NWZ3). The experiment in a line: IRAK4 Inhibition Assay. The format is biochemical. To be noted: ATP 500 μM; IRAK4 0.6 nM. The essentials:
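Mobility-shift readout: phosphorylated and unphosphorylated fluorescent peptide (1.5 μM) resolved by electrophoresis after a 60 min room-temperature reaction stopped with EDTA. Reaction holds 0.6 nM IRAK4, 500 μM ATP and 1.6% DMSO in HEPES pH 7.2/MgCl2/Brij 35/DTT buffer; percent inhibition set against vehicle and no-enzyme controls.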

A short description of series [1]: Caco-2 Permeability Assay. To be noted: human, Caco-2, test compound 3 μM. In kind it is in vitro ADME. Summed up:
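Bidirectional permeability measured over 2 h at 37° C, compound dosed at 3 μM in the donor compartment (apical for absorptive, basolateral for secretive) with plain buffer as receiver.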

Series [2] has as its system Human whole blood stimulated with a TLR2 agonist (lipoteichoic acid), IL-6 levels. Briefly: IRAK4 Whole Blood Assay. The format is cell-based. To be noted: Homo sapiens, lipoteichoic acid 10 μg/mL. Summed up:
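ACD-A-anticoagulated human whole blood was preincubated with compounds for 60 min at 37 °C under 5% CO2. It was then stimulated with 10 μg/mL lipoteichoic acid (final) in RPMI for 5 h. IL-6 in plasma supernatants was measured by flow cytometry bead assay.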

Sequence of IRAK4 (Q9NWZ3 whole entry, species assumed): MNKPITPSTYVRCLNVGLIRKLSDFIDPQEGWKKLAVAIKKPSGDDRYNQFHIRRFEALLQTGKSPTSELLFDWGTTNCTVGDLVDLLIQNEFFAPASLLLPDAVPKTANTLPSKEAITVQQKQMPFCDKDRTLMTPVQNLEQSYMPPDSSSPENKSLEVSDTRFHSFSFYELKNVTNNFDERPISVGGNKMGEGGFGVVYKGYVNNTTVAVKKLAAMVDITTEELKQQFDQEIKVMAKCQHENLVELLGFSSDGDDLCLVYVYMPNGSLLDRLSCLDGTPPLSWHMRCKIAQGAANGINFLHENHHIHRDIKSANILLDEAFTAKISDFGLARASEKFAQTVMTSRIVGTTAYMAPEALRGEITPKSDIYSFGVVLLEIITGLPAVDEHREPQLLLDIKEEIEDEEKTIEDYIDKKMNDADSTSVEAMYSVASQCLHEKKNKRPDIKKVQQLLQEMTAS

Take `CC(C)Nc1cc(-n2ncc3cc(C#N)cnc32)ncc1-n1cc(C2CCN(C(=O)C(F)(F)F)CC2)nn1` [Example 386, 1-(4-(isopropylamino)-5-(4-(1-(2,2,2-trifluoroacetyl)piperidin-4-yl)-1H-1,2,3-triazol-1-yl)pyridin-2-yl)-1H-pyrazolo[3,4-b]pyridine-5-carbonitrile]: the IC50 on IRAK4 worked out at 4 nM. Besides, the Papp at 2 h, 3 µM in series [1] is 24.8 ×10⁻⁶ cm/s. Moreover, the EC50 in series [2] was 200 nM.

In the case of `CCCn1cc(-c2cnc(-n3ncc4cc(Cl)cnc43)cc2NC(C)C)nn1` [Example 218, 2-(5-chloro-1H-pyrazolo[3,4-b]pyridin-1-yl)-N-isopropyl-5-(1-propyl-1H-1,2,3-triazol-4-yl)pyridin-4-amine], the IC50 on IRAK4 came to 9 nM. In series [1], this molecule yielded a Papp at 2 h, 3 µM of 12.5 ×10⁻⁶ cm/s. This molecule also had an EC50 in series [2] of 2090 nM.

Regarding `CC(=O)N1CC[C@H]1c1cc(-c2cnc(-n3ncc4cc(C#N)cnc43)cc2NC(C)C)on1` [Example 427, (S)-1-(5-(3-(1-acetylazetidin-2-yl)isoxazol-5-yl)-4-(isopropylamino)pyridin-2-yl)-1H-pyrazolo[3,4-b]pyridine-5-carbonitrile], at IRAK4, the IC50 was found to be 15 nM. Moreover, the Papp at 2 h, 3 µM in series [1] was 8 ×10⁻⁶ cm/s. The same molecule yielded an EC50 in series [2] of 250 nM.

For the molecule `CCCn1cc(-c2cnc(-n3ncc4cc(C#N)cnc43)cc2NCC)nn1` [Example 54, 1-(4-(ethylamino)-5-(1-propyl-1H-1,2,3-triazol-4-yl)pyridin-2-yl)-1H-pyrazolo[3,4-b]pyridine-5-carbonitrile], the IC50 at IRAK4 came to 9 nM. Besides, the Papp at 2 h, 3 µM in series [1] amounted to 40.8 ×10⁻⁶ cm/s. Moreover, in series [2], the EC50 stood at 1180 nM.

Regarding `CC(C)Nc1cc(-n2ncc3cc(C#N)cnc32)ncc1-c1cn(CCC(C)(C)O)nn1` [Example 128, 1-(5-(1-(3-hydroxy-3-methylbutyl)-1H-1,2,3-triazol-4-yl)-4-(isopropylamino)pyridin-2-yl)-1H-pyrazolo[3,4-b]pyridine-5-carbonitrile], the IC50 on IRAK4 came to 1 nM. For the same molecule, the apparent permeability (Papp) at 2 h, 3 µM in series [1] was 5 ×10⁻⁶ cm/s. Moreover, the midpoint of the response in series [2], the EC50, lay at 340 nM.

Regarding `CC(C)Nc1cc(-n2ncc3cc(C#N)cnc32)ncc1-n1cc(CCCCO)nn1` [Example 311, 1-(5-(4-(4-hydroxybutyl)-1H-1,2,3-triazol-1-yl)-4-(isopropylamino)pyridin-2-yl)-1H-pyrazolo [3,4-b]pyridine-5-carbonitrile], at IRAK4, the IC50 was found to be 6 nM. In series [1], this molecule returned a Papp at 2 h, 3 µM of 6.4 ×10⁻⁶ cm/s. Moreover, in series [2], it took 120 nM to reach a half-maximal effect (EC50).

For `CC(C)Nc1cc(-n2ncc3cc(C#N)cnc32)ncc1-c1cn(CC2CC2)nn1` [Example 16, 1-(5-(1-(cyclopropylmethyl)-1H-1,2,3-triazol-4-yl)-4-(isopropylamino)pyridin-2-yl)-1H-pyrazolo[3,4-b]pyridine-5-carbonitrile], on IRAK4, the half-inhibitory concentration (IC50) was found to be 5 nM. The apparent permeability (Papp) at 2 h, 3 µM in series [1] came out at 14 ×10⁻⁶ cm/s. Besides, the EC50 in series [2] turned out to be 850 nM.

Regarding `CC(C)Nc1cc(-n2ncc3cc(C#N)cnc32)ncc1-c1cc([C@@H]2COC(C)(C)O2)no1` [Example 420, (R)-1-(5-(3-(2,2-dimethyl-1,3-dioxolan-4-yl)isoxazol-5-yl)-4-(isopropylamino)pyridin-2-yl)-1H-pyrazolo[3,4-b]pyridine-5-carbonitrile], the IC50 on IRAK4 was found to be 6 nM. The molecule also came in with a Papp at 2 h, 3 µM in series [1] of 43.8 ×10⁻⁶ cm/s. The half-maximal effective concentration (EC50) in series [2] came out at 350 nM.

As to `CC(C)Nc1cc(-n2ncc3cc(C#N)cnc32)ncc1-c1cn(CC(C)(C)O)nn1` [Example 63, 1-(5-(1-(2-hydroxy-2-methylpropyl)-1H-1,2,3-triazol-4-yl)-4-(isopropylamino)pyridin-2-yl)-1H-pyrazolo[3,4-b]pyridine-5-carbonitrile], at IRAK4, the IC50 stood at 14 nM. Moreover, in series [1], the Papp at 2 h, 3 µM was determined as 7.8 ×10⁻⁶ cm/s. This molecule yielded an EC50 in series [2] of 900 nM.

In the case of `N#Cc1cnc2c(cnn2-c2cc(NC3CC3)c(-c3cn(CCO)nn3)cn2)c1` [Example 14, 1-(4-(cyclopropylamino)-5-(1-(2-hydroxyethyl)-1H-1,2,3-triazol-4-yl)pyridin-2-yl)-1H-pyrazolo[3,4-b]pyridine-5-carbonitrile], the half-maximal inhibitory concentration (IC50) at IRAK4 turned out to be 3 nM. In series [1], this molecule yielded a Papp at 2 h, 3 µM of 4.1 ×10⁻⁶ cm/s. Moreover, it took 490 nM to reach a half-maximal effect in series [2] (EC50).

With `CC(=O)N1CCC(n2cc(-c3cnc(-n4ncc5cc(C#N)cnc54)cc3NC(C)C)nn2)C1` (stereo not drawn) [Example 157, 1-(5-(1-(1-acetylpyrrolidin-3-yl)-1H-1,2,3-triazol-4-yl)-4-(isopropylamino)pyridin-2-yl)-1H-pyrazolo[3,4-b]pyridine-5-carbonitrile], the IC50 on IRAK4 worked out at 6 nM. In addition, the Papp at 2 h, 3 µM in series [1] was < 1.5 ×10⁻⁶ cm/s. The same molecule registered a concentration giving a half-maximal response (EC50) in series [2] of 280 nM.

As to `CC(C)Nc1cc(-n2ncc3cc(C#N)cnc32)ncc1-n1cc(CCC(C)(C)OC(=O)CN)nn1` [Example 378, 4-(1-(6-(5-cyano-1H-pyrazolo[3,4-b]pyridin-1-yl)-4-(isopropylamino)pyridin-3-yl)-1H-1,2,3-triazol-4-yl)-2-methylbutan-2-yl glycinate], the IC50 on IRAK4 stood at 2 nM. Moreover, in series [1], the apparent permeability (Papp) at 2 h, 3 µM was < 1.5 ×10⁻⁶ cm/s. The same molecule came in with an EC50 in series [2] of 160 nM.

`CCCn1cnc(-c2cnc(-n3ncc4cc(C#N)cnc43)cc2NC(C)C)c1` [Example 219]: the IC50 on IRAK4 was determined as 10 nM. The apparent permeability coefficient (Papp) at 2 h, 3 µM in series [1] amounted to 31.8 ×10⁻⁶ cm/s. In series [2], this molecule yielded an EC50 of 1480 nM.

Turning to `CC(C)(O)CCc1cn(-c2cnc(-n3ncc4cc(C#N)cnc43)cc2N[C@@H]2CCC[C@@H]2F)nn1` [Example 375, 1-(4-(((1R,2S)-2-fluorocyclopentyl)amino)-5-(4-(3-hydroxy-3-methylbutyl)-1H-1,2,3-triazol-1-yl)pyridin-2-yl)-1H-pyrazolo[3,4-b]pyridine-5-carbonitrile], on IRAK4, the IC50 was 1 nM. In addition, the Papp at 2 h, 3 µM in series [1] was determined as 6.8 ×10⁻⁶ cm/s. This molecule came in with a 50% effective concentration (EC50) in series [2] of 300 nM.

Take `CC(C)Nc1cc(-n2ncc3cc(C#N)cnc32)ncc1-c1cn(C[C@H](O)c2ccccc2)nn1` [Example 85, (R)-1-(5-(1-(2-hydroxy-2-phenylethyl)-1H-1,2,3-triazol-4-yl)-4-(isopropylamino)pyridin-2-yl)-1H-pyrazolo[3,4-b]pyridine-5-carbonitrile]: on IRAK4, the IC50 amounted to 5 nM. This molecule yielded a Papp at 2 h, 3 µM in series [1] of 6.9 ×10⁻⁶ cm/s. Moreover, in series [2], the EC50 was 310 nM.

Turning to `CC(C)Nc1cc(-n2ncc3cc(C#N)cnc32)ncc1-c1cc([C@H]2CCNC2)no1` [Example 404, (S)-1-(4-(isopropylamino)-5-(3-(pyrrolidin-3-yl)isoxazol-5-yl)pyridin-2-yl)-1H-pyrazolo[3,4-b]pyridine-5-carbonitrile], the IC50 at IRAK4 amounted to 3 nM. Further, the apparent permeability coefficient (Papp) at 2 h, 3 µM in series [1] was < 1.5 ×10⁻⁶ cm/s. In series [2], this molecule displayed a half-maximal effective concentration (EC50) of 230 nM.

For `CC(C)Nc1cc(-n2ncc3cc(C#N)cnc32)ncc1-c1nnc(C(=O)N2CCOCC2)o1` [Example 433, 1-(4-(isopropylamino)-5-(5-(morpholine-4-carbonyl)-1,3,4-oxadiazol-2-yl)pyridin-2-yl)-1H-pyrazolo[3,4-b]pyridine-5-carbonitrile], the IC50 at IRAK4 came out at 11 nM. The molecule further gave an apparent permeability (Papp) at 2 h, 3 µM in series [1] of 1.7 ×10⁻⁶ cm/s. In series [2], a half-maximal effect (EC50) was put at 200 nM.

With `CC(C)Nc1cc(-n2ncc3cc(C#N)cnc32)ncc1-c1cc(C2CCCCN2)no1` [Example 412, (S)-1-(4-(isopropylamino)-5-(3-(piperidin-2-yl)isoxazol-5-yl)pyridin-2-yl)-1H-pyrazolo[3,4-b]pyridine-5-carbonitrile], the IC50 on IRAK4 was determined as 4 nM. Also, the apparent permeability (Papp) at 2 h, 3 µM in series [1] came to 13.9 ×10⁻⁶ cm/s. The EC50 in series [2] came out at 400 nM.

With `CC(C)(O)CCc1cn(-c2cnc(-n3ncc4cc(C#N)cnc43)cc2NCCCF)nn1` [Example 370, 1-(4-((3-fluoropropyl)amino)-5-(4-(3-hydroxy-3-methylbutyl)-1H-1,2,3-triazol-1-yl)pyridin-2-yl)-1H-pyrazolo[3,4-b]pyridine-5-carbonitrile], the IC50 at IRAK4 is 9 nM. For the same molecule, in series [1], the Papp at 2 h, 3 µM amounted to 2.5 ×10⁻⁶ cm/s. In addition, the EC50 in series [2] worked out at 280 nM.

Consider `CC(=O)N1CCCC(n2cc(-c3cnc(-n4ncc5cc(C#N)cnc54)cc3NC(C)C)nn2)C1` (stereo not drawn) [Example 160, 1-(5-(1-(1-acetylpiperidin-3-yl)-1H-1,2,3-triazol-4-yl)-4-(isopropylamino)pyridin-2-yl)-1H-pyrazolo[3,4-b]pyridine-5-carbonitrile], for which the half-maximal inhibitory concentration (IC50) on IRAK4 came to 1 nM. The Papp at 2 h, 3 µM in series [1] worked out at 1.8 ×10⁻⁶ cm/s. For the same molecule, the EC50 in series [2] was determined as 290 nM.

In the case of `Cc1n[nH]c(C)c1CCn1cc(-c2cnc(-n3ncc4cc(C#N)cnc43)cc2NC(C)C)nn1` [Example 102, 1-(5-(1-(2-(3,5-dimethyl-1H-pyrazol-4-yl)ethyl)-1H-1,2,3-triazol-4-yl)-4-(isopropylamino)pyridin-2-yl)-1H-pyrazolo[3,4-b]pyridine-5-carbonitrile], at IRAK4, the IC50 amounted to 4 nM. Also, the apparent permeability coefficient (Papp) at 2 h, 3 µM in series [1] is < 1.5 ×10⁻⁶ cm/s. In series [2], this molecule gave a 50% effective concentration (EC50) of 1110 nM.

As to `CC(C)Nc1cc(-n2ncc3cc(C#N)cnc32)ncc1-c1cn(CC2CCO2)nn1` (stereo not drawn) [Example 123, 1-(4-(isopropylamino)-5-(1-(oxetan-2-ylmethyl)-1H-1,2,3-triazol-4-yl)pyridin-2-yl)-1H-pyrazolo[3,4-b]pyridine-5-carbonitrile], the IC50 on IRAK4 is 5 nM. The molecule also showed an apparent permeability coefficient (Papp) at 2 h, 3 µM in series [1] of 24.4 ×10⁻⁶ cm/s. A half-maximal effect in series [2] (EC50) was put at 240 nM.

On to `CC(=O)Cn1cc(-c2cnc(-n3ncc4cc(C#N)cnc43)cc2NC(C)C)nn1` [Example 170, 1-(4-(isopropylamino)-5-(1-(2-oxopropyl)-1H-1,2,3-triazol-4-yl)pyridin-2-yl)-1H-pyrazolo[3,4-b]pyridine-5-carbonitrile], for which, at IRAK4, the IC50 was determined as 2 nM. Further, the Papp at 2 h, 3 µM in series [1] is 4.5 ×10⁻⁶ cm/s. The molecule further displayed an EC50 in series [2] of 430 nM.

The record behind these values is patent publication US10294229B2, “Heteroaryl substituted aminopyridine compounds” (BRISTOL-MYERS SQUIBB COMPANY, priority 2015, dated 2019).
